31 molecules from ChEMBL document CHEMBL3045152, “Synthesis and antiviral activity of new 4-(phenylamino)/4-[(methylpyridin-2-yl)amino]-1-phenyl-1H-pyrazolo[3,4-b]pyridine-4-carboxylic acids derivatives” (Med Chem Res, 2007) can be followed below.

The subject of data set [1] is Human alphaherpesvirus 1. In words: Antiviral activity against Human herpesvirus 1 at 50 uM by end point titration assay. In kind it is functional.
Data set [2] can be described thus: Selectivity index, ratio of CC50 for african green monkey Vero cells to EC50 for Mayaro virus. In kind it is toxicity, cell-based. The note with it: read-out: Ratio CC50/EC50.
The nature of data set [3]: Selectivity index, ratio of CC50 for african green monkey Vero cells to EC50 for Vesicular stomatitis virus. It counts as toxicity, cell-based. Conditions: read-out: Ratio CC50/EC50.
In the next data set the test system is Mayaro virus. Kind of data set: Antiviral activity against Mayaro virus infected in Vero cells after 72 hr by plaque reduction assay. In kind it is functional, organism-based. (In general: Plaques are areas of infected cells; plaque reduction assays count them against a control.)
For data set [4], the system named is Vesicular stomatitis virus. Kind of data set: Antiviral activity against Vesicular stomatitis virus infected Vero cells after 72 hr by plaque reduction assay. In kind it is functional, organism-based.
Data set [5] can be described thus: Cytotoxicity against Chlorocebus aethiops (African green monkey) Vero cells after 72 hr by MTT assay. It counts as cell-based. The note with it: chlorocebus sabaeus. A general note: Tetrazolium dyes change colour on reduction, which living cells bring about.
Data set [6] can be described thus: Selectivity index, ratio of CC50 for african green monkey Vero cells to EC50 for Herpes simplex virus 1. In kind it is toxicity, cell-based. Conditions: read-out: Ratio CC50/EC50.
Data set [7] relates to Human alphaherpesvirus 1. Kind of data set: Antiviral activity against Human herpesvirus 1 at 10 uM by end point titration assay. In kind it is functional.
In data set [8] the test system is Human alphaherpesvirus 1. In words: Antiviral activity against Human herpesvirus 1 infected in Vero cells after 72 hr by plaque reduction assay. It counts as functional, organism-based. The note with it: Human alphaherpesvirus 1, Vero.

The term inhibition denotes the percentage by which the read-out fell short of the control. `CCOC(=O)c1cnc2c(cnn2-c2ccccc2)c1Nc1ccc(Cl)cc1` had an inhibition at 50 µM in the data set with Human alphaherpesvirus 1 [1] of 92%. On the same count and under the same terms, the same measure for `CCOC(=O)c1cnc2c(cnn2-c2ccccc2)c1Nc1ccc(C)cc1`: 69.2%. Regarding `O=C(O)c1cnc2c(cnn2-c2ccccc2)c1Nc1ccc(Br)cc1`, 50 µM produced 37% inhibition with Human alphaherpesvirus 1 [1]. The same measure, in the same setting: the value for `CCOC(=O)c1cnc2c(cnn2-c2ccccc2)c1Nc1ccc(OC)cc1` was 75.5%; that for `CCOC(=O)c1cnc2c(cnn2-c2ccccc2)c1Nc1ccc(Br)cc1` was 75%. Same read-out and setting: the value for `CCOC(=O)c1cnc2c(cnn2-c2ccccc2)c1Nc1cccc(Br)c1` was 70%. In general, EC50 refers to the concentration that produces a half-maximal response. By CC50 is commonly meant the concentration at which the toxic effect on the cells reaches its halfway point. Take `O=C(O)c1cnc2c(cnn2-c2ccccc2)c1Nc1cccc(Cl)c1`: testing at 50 µM in the data set on Human alphaherpesvirus 1 [1] gave an inhibition of 68%. Moreover, the selectivity ratio in data set [2] was found to be 71; in data set [3], 37. For the same molecule, the EC50 in the data set with Mayaro virus was found to be 0.52 µM; in [4], 1 µM. Moreover, the CC50 at 72 h in data set [5] came to 37.4 µM.

Take `CCOC(=O)c1cnc2c(cnn2-c2ccccc2)c1Nc1cccc(C)n1`: 50 µM produced 90% inhibition in the data set on Human alphaherpesvirus 1 [1]. On the same count and under the same terms, the same measure for `Cc1ccc(Nc2c(C(=O)O)cnc3c2cnn3-c2ccccc2)nc1`: 60%. For `O=C(O)c1cnc2c(cnn2-c2ccccc2)c1Nc1ccccc1`, the inhibition at 50 µM in the data set on Human alphaherpesvirus 1 [1] was determined as 0%. Besides, the selectivity ratio in data set [2] came out at 28; in data set [3], 54. In addition, the concentration giving a half-maximal response (EC50) is 4.8 µM with Mayaro virus and 2.5 µM in [4]. In data set [5], it took 135 µM to reach half-maximal cytotoxicity (CC50 at 72 h). As to `CCOC(=O)c1cnc2c(cnn2-c2ccccc2)c1Nc1cccc(C)c1`, the inhibition at 50 µM in the data set on Human alphaherpesvirus 1 [1] was found to be 90%. Still for that read-out and setting: the same measure for `Cc1cccc(Nc2c(C(=O)O)cnc3c2cnn3-c2ccccc2)c1`: 38.5%; for `CCOC(=O)c1cnc2c(cnn2-c2ccccc2)c1Nc1cc(C)ccn1`: 60%. Consider `COc1ccc(Nc2c(C(=O)O)cnc3c2cnn3-c2ccccc2)cc1`, for which testing at 50 µM in the data set with Human alphaherpesvirus 1 [1] gave an inhibition of 80.6%. In turn, `O=C(O)c1cnc2c(cnn2-c2ccccc2)c1Nc1cccc(F)c1` yielded an inhibition at 50 µM in the data set with Human alphaherpesvirus 1 [1] of 68%. On the same count and under the same terms, the value for `CCOC(=O)c1cnc2c(cnn2-c2ccccc2)c1Nc1cccc(F)c1` was 0%; that for `CCOC(=O)c1cnc2c(cnn2-c2ccccc2)c1Nc1cccc(Cl)c1` was 60%. The same measure, in the same setting: the same measure for `CCOC(=O)c1cnc2c(cnn2-c2ccccc2)c1Nc1ccccc1`: 90%. Still for that read-out and setting: the same measure for `CCOC(=O)c1cnc2c(cnn2-c2ccccc2)c1Nc1ccc([N+](=O)[O-])cc1`: 0%; for `CCOC(=O)c1cnc2c(cnn2-c2ccccc2)c1Nc1cccc(OC)c1`: 98%. In the data set with Human alphaherpesvirus 1 [1], `O=C(O)c1cnc2c(cnn2-c2ccccc2)c1Nc1cccc([N+](=O)[O-])c1` yielded an inhibition at 50 µM of 20.6%.

In the data set on Human alphaherpesvirus 1 [1], `Cc1ccnc(Nc2c(C(=O)O)cnc3c2cnn3-c2ccccc2)c1` yielded an inhibition at 50 µM of 75%. On to `Nc1nc2c(ncn2COCCO)c(=O)[nH]1` [ACYCLOVIR], for which the selectivity ratio in data set [2] and in [6] was 880 each time. The molecule further registered a CC50 at 72 h in data set [5] of 960 µM. This molecule also gave an inhibition at 10 µM in the data set with Human alphaherpesvirus 1 [7] of 96%. Molecule `O=C(O)c1cnc2c(cnn2-c2ccccc2)c1Nc1ccc(Cl)cc1` registered an inhibition at 50 µM with Human alphaherpesvirus 1 [1] of 68%. Regarding `COc1cccc(Nc2c(C(=O)O)cnc3c2cnn3-c2ccccc2)c1`, the inhibition at 50 µM in the data set on Human alphaherpesvirus 1 [1] was determined as 75.5%. Still for that read-out and setting: the value for `CCOC(=O)c1cnc2c(cnn2-c2ccccc2)c1Nc1ccc(C)cn1` was 90%. With `O=C(O)c1cnc2c(cnn2-c2ccccc2)c1Nc1cccc(Br)c1`, the inhibition at 50 µM with Human alphaherpesvirus 1 [1] was 84%. This molecule came in with an EC50 with Human alphaherpesvirus 1 [8] of 2.2 µM. For the same molecule, the CC50 at 72 h in data set [5] was 600 µM. In data set [6], the selectivity ratio stood at 272. `Cc1ccc(Nc2c(C(=O)O)cnc3c2cnn3-c2ccccc2)cc1` came in with an inhibition at 50 µM in the data set on Human alphaherpesvirus 1 [1] of 58.4%. With `Cc1cccc(Nc2c(C(=O)O)cnc3c2cnn3-c2ccccc2)n1`, testing at 50 µM in the data set on Human alphaherpesvirus 1 [1] gave an inhibition of 21%. For the molecule `O=C(O)c1cnc2c(cnn2-c2ccccc2)c1Nc1ccc([N+](=O)[O-])cc1`, the inhibition at 50 µM in the data set on Human alphaherpesvirus 1 [1] amounted to 80%.

As for `CCOC(=O)c1cnc2c(cnn2-c2ccccc2)c1Nc1cccc([N+](=O)[O-])c1`, testing at 50 µM in the data set with Human alphaherpesvirus 1 [1] gave an inhibition of 90%. The EC50 in the data set with Human alphaherpesvirus 1 [8] came to 6.8 µM. This molecule came in with a cytotoxic concentration (CC50) at 72 h in [5] of 1000 µM. The selectivity ratio in data set [6] worked out at 141.
